Assay [1] concerns the target T1, LRRK2 G2019S (Homo sapiens, UniProt Q5S007, G2019S). The assay can be described thus: TR-FRET cellular assay for LRRK2 Ser935 phosphorylation, U-2 OS cells, BacMam LRRK2-GFP G2019S. It is filed as cell-based. Also on record: This high-throughput assay utilizes cells expressing full-length human LRRK2 with a C-terminal GFP tag (LRRK2-GFP); host or cells: U-2 OS, SH-SY5Y, HEK293T cells or human neural stem cells transduced with BacMam. How it is done:
(§1) U-2 OS cells are maintained in growth medium (McCoy’s 5A supplemented with 10% dialyzed FBS (dFBS), 10 mM HEPES, 0.1 mM NEAA, 1 mM Sodium Pyruvate, and 100 U/mL Penicillin/100 µg/mL Streptomycin). HEK293T cells are maintained in DMEM with 10% dFBS, 10 mM HEPES, 0.1 mM NEAA and 100 U/mL Penicillin/100 µg/mL Streptomycin. SH-SY5Y cells are maintained in DMEM/F-12 medium supplemented with 10% dFBS and 100 U/mL Penicillin/100 µg/mL Streptomycin. […] GIBCO® human neural stem cells (hNSCs) were propagated as an adherent culture in StemPro® NSC SFM according to the manufacturer’s recommended protocol (Life Technologies). For BacMam transduction of U-2 OS and HEK293T, cells were harvested, mixed with various amounts of BacMam LRRK2-GFP reagent (v/v) and plated onto 6-well plates. […] Cells were assayed in 384-well format (∼20,000 cells/well) 48 hours post-transduction as above.
(§2) Transduced cells in the 384-well assay plate were incubated with indicated inhibitors (5X, 5 µL/well) for 60 to 90 minutes. During this time, 6 X lysis buffer (Life Technologies) was supplemented with 30 nM Tb-labeled anti-LRRK2 pSer935 antibody and both protease and phosphatase inhibitor cocktails (Sigma). The complete 6 X lysis buffer was added to each well (5 µL/well) and the plates were incubated at room temperature in the dark for 2 hours. […] A sigmoidal dose-response equation with varying slope was used to fit the data and generate IC50 values. Z′-factor values were calculated as: Z′-factor = 1 - [(3 × stdevno virus +3 × stdevmaxvirus)/(avgmaxvirus – avgno-virus)]. The IC50 values reported in Table 1 are the averaged numbers from three independent experiments.
(Time-resolved FRET reads energy transfer from a long-lived donor to a nearby acceptor.)

In assay [2] the target is T1, LRRK2 G2019S. Description: TR-FRET cellular assay for LRRK2 Ser935 phosphorylation, HEK293T cells, BacMam LRRK2-GFP G2019S. The arrangement: This high-throughput assay utilizes cells expressing full-length human LRRK2 with a C-terminal GFP tag (LRRK2-GFP); host or cells: HEK293T cells transduced with BacMam. As to conditions: +/- SD, three independent experiments, * = partial inhibition, read-out: IC50, TR-FRET cell-based assay for Ser935 phosphorylation of LRRK2. How it is done: as §1, §2

Assay [3] deals with T1, LRRK2 G2019S. Description: In vitro biochemical LRRK2 TR-FRET activity assay. The note with it: LRRK2 G2019S, ATP 134 µM (Km,app), LRRKtide substrate, three independent experiments; read-out: Biochemical LRRK2 assay IC50 +/- SD.
Assay [4] deals with LRRK2-GFP. Description: Western blot analysis of LRRK2-GFP phosphorylation in BacMam transduced U-2 OS cells. It is filed as cell-based, human. The note with it: LRRK2-IN-1 3 µM 90 min, wild-type, G2019S, R1441C, Figure 1B. How it is done:
(§3) Immunoblot analysis: BacMam LRRK2-GFP transduced U-2 OS or SH-SY5Y cells (10^7 cells) were left untreated or treated with 3 µM LRRK2-IN-I for 90 min. For lysate preparation, the cells were washed once with ice-cold PBS and lysed by addition of ice-cold lysis buffer (20 mM Tris-HCl, pH 7.4, 1% NP-40, 5 mM EDTA, 5 mM NaF, 150 mM NaCl, and 1∶100 of protease and phosphatase inhibitor cocktails). The lysate was cleared of debris by centrifugation. Equal amount of total protein was loaded onto each lane for SDS-PAGE (3–8% Tris Acetate). The proteins were transferred onto nitrocellulose membrane using the iBLOT® dry blotting system (Life Technologies) according to manufacturer’s protocol. The membranes were blocked and incubated with a primary antibody against LRRK2 (Cell Signaling Technologies), followed by incubation with alkaline phosphatase-conjugated secondary antibody (WesternBreeze® chromogenic Kit, Life Technologies). The blot was developed by using the chromogenic BCIP/NBT substrate (WesternBreeze® chromogenic Kit, Life Technologies). […]
Background: A western blot detects proteins with antibodies after separation by electrophoresis.

In assay [5] the target is T2, LRRK2-GFP (Homo sapiens, UniProt Q5S007, G2019S).
T2 construct: GFP is fused to the C-terminus of full-length human LRRK2 wild-type, G2019S, R1441C and kinase-dead D1994A; host or cells: U-2 OS cells transduced with BacMam
The description is as above. It is filed as cell-based. The note with it: BacMam LRRK2-GFP G2019S, 10 µM, Figure S1. How it is done:
as §3

T1 sequence (Q5S007 whole entry G2019S): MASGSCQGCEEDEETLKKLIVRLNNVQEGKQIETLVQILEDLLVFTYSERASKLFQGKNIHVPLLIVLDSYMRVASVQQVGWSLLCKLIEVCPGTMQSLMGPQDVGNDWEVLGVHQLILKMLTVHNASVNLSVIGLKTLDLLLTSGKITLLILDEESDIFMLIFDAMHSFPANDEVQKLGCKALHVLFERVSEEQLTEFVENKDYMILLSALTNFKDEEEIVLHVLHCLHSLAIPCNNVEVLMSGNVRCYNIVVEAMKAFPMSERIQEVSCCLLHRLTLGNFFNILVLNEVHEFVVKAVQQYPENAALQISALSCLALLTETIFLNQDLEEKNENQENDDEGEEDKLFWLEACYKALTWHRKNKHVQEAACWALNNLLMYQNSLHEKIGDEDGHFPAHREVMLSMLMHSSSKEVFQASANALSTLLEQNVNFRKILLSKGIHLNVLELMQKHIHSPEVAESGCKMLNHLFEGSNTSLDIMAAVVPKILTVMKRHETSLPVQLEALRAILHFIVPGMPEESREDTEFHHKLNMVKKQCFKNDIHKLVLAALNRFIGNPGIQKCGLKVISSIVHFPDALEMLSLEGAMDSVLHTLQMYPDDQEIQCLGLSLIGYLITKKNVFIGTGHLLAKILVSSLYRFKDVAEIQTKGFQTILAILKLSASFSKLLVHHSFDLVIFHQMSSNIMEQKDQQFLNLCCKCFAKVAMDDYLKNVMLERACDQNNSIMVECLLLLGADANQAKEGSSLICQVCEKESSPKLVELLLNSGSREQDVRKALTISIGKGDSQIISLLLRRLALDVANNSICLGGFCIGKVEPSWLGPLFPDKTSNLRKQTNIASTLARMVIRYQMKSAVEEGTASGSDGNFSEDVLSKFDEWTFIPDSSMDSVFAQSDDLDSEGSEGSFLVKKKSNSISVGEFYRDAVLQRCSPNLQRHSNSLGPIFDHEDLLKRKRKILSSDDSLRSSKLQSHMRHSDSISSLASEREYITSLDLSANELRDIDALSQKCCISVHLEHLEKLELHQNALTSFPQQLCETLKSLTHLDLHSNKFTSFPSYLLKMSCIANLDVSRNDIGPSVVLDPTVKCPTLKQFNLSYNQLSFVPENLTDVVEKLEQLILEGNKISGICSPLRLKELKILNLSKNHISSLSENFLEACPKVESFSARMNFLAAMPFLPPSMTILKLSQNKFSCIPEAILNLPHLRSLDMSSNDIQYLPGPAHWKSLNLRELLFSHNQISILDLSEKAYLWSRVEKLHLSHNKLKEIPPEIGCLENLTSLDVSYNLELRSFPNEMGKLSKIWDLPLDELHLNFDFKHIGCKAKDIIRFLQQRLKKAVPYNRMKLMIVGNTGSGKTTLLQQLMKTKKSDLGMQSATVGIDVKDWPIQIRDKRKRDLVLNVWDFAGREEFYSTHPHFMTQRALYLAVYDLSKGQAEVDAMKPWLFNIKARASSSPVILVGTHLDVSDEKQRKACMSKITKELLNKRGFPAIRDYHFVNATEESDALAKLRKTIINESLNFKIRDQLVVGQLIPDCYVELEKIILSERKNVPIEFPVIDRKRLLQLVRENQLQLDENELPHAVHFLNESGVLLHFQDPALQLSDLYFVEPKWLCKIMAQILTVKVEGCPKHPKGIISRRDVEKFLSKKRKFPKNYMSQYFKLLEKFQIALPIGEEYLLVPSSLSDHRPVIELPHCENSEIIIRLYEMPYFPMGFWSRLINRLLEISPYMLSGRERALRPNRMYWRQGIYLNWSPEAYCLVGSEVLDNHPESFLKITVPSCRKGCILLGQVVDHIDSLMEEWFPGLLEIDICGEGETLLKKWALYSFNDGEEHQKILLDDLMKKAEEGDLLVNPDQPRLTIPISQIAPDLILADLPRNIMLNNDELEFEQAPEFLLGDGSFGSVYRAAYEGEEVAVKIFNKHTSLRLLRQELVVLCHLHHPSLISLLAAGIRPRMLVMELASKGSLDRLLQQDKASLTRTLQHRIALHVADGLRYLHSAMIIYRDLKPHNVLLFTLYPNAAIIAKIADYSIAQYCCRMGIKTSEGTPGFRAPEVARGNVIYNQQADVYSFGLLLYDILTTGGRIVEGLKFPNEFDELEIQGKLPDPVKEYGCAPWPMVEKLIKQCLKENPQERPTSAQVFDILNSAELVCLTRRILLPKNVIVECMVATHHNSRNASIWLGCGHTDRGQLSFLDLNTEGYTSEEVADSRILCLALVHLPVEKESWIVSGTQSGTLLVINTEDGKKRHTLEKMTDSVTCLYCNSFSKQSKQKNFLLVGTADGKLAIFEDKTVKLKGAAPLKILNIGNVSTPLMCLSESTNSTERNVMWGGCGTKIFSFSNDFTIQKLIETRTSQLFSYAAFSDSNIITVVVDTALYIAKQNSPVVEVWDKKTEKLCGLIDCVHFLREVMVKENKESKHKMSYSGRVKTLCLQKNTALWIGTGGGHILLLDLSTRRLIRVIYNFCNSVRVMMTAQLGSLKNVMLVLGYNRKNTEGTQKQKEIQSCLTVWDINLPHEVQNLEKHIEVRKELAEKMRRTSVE
T2 sequence (Q5S007 whole entry G2019S, the tested form may be a part): as the sequence (Q5S007 whole entry G2019S) above

In the case of `COc1cc(C(=O)N2CCC(N3CCN(C)CC3)CC2)ccc1Nc1ncc2c(n1)N(C)c1ccccc1C(=O)N2C` [LRRK2-IN-1], the IC50 at LRRK2 G2019S [1] (20% BacMam G2019S, 90 min, Figure 2B, read-out: IC50, inhibition of TR-FRET signal (Ser935 phosphorylation)) was determined as 30 nM; at LRRK2 G2019S [1] (G2019S, +/- SD, three independent experiments, * = partial inhibition, read-out: IC50, TR-FRET cell-based assay for Ser935 phosphorylation of LRRK2), 50 nM; on LRRK2 G2019S [2], 60 nM; at LRRK2 G2019S [3] it was 10 nM. For the same compound, the “Ser935 phosphorylation by Western blot” value with LRRK2-GFP [4] is “diminished”. Also, on LRRK2-GFP [5], the “phosphorylation at Ser910, Ser935, Ser955 and Ser973 by immunoblot” value is “responsive to LRRK2-IN-1 treatment”.
